Where “and” joins values, the source holds several entries; their conditions need not be identical. Equal values may be shown once.
Test: xn = mol fraction of the nth substance listed

COCCOCCOC + COC(C)=O
viscosity [mPa·s], 101.33 kPa
Conditions | x1 = 0.1 | x1 = 0.198 | x1 = 0.2969 | x1 = 0.4015 | x1 = 0.4988 | x1 = 0.5951 | x1 = 0.6954 | x1 = 0.7941 | x1 = 0.8973
298.15 K | 0.441 | 0.498 | 0.559 | 0.621 | 0.683 | 0.741 | 0.801 | 0.861 | 0.922
303.15 K | 0.418 | 0.47 | 0.526 | 0.582 | 0.639 | 0.691 | 0.746 | 0.799 | 0.855
308.15 K | 0.396 | 0.445 | 0.496 | 0.548 | 0.6 | 0.646 | 0.696 | 0.745 | 0.795
313.15 K | 0.376 | 0.418 | 0.469 | 0.516 | 0.564 | 0.607 | 0.652 | 0.697 | 0.741

ClC(Cl)C(Cl)Cl + COC(C)=O
303.15 K, 101.3 kPa
Conditions | viscosity [mPa·s]
x2 = 0.103 | 1.379
x2 = 0.1999 | 1.268
x2 = 0.3012 | 1.147
x2 = 0.3998 | 1.029
x2 = 0.5031 | 0.8951
x2 = 0.6017 | 0.764
x2 = 0.6999 | 0.6464
x2 = 0.8014 | 0.5324
x2 = 0.9019 | 0.4308

CCCCCCN + COCCO
308.15 K, 101 kPa
Conditions | viscosity [mPa·s]
x2 = 0.1567 | 0.8278
x2 = 0.2965 | 1.059
x2 = 0.4194 | 1.245
x2 = 0.5291 | 1.381
x2 = 0.6276 | 1.456
x2 = 0.7166 | 1.459
x2 = 0.7973 | 1.434
x2 = 0.8708 | 1.397
x2 = 0.9382 | 1.338

CNc1ccccc1 + CS(C)=O
303 K, 101.33 kPa
Conditions | viscosity [mPa·s]
x1 = 0.101 | 1.844
x1 = 0.2001 | 1.861
x1 = 0.3007 | 1.939
x1 = 0.3986 | 2.046
x1 = 0.4987 | 2.03
x1 = 0.6003 | 2.106
x1 = 0.6987 | 2.12
x1 = 0.8007 | 2.057
x1 = 0.9015 | 1.911

Oc1ccccc1 + CS(C)=O
viscosity [mPa·s], 101 kPa
Conditions | x2 = 0.2 | x2 = 0.3 | x2 = 0.4 | x2 = 0.5 | x2 = 0.6 | x2 = 0.7 | x2 = 0.8 | x2 = 0.9
298.15 K | 8.913 | 7.767 | 6.467 | 5.173 | 4.111 | 3.282 | 2.726 | 2.308
308.15 K | 5.87 | 5.328 | 4.618 | 3.826 | 3.127 | 2.579 | 2.192 | 1.902
318.15 K | 4.15 | 3.888 | 3.486 | 2.977 | 2.489 | 2.09 | 1.794 | 1.577

Oc1ccccc1 + C[N+](C)(C)CCO.[Cl-]
viscosity
Conditions | 101 kPa | 101.33 kPa
293.15 K, x2 = 0.2 | – | 61.78 mPa·s
293.15 K, x2 = 0.25 | – | 72.04 mPa·s
293.15 K, x2 = 0.333 | 137.7 mPa·s | –
298.15 K, x1 = 0.7 | – | 122.5 mPa·s
298.15 K, x1 = 0.8 | – | 56.11 mPa·s and 39.28 mPa·s and 30.65 mPa·s
298.15 K, x1 = 0.9 | – | 26.18 mPa·s
298.15 K, x2 = 0.333 | 99.81 mPa·s | –
303.15 K, x2 = 0.2 | 36.55 mPa·s | 37.73 mPa·s
303.15 K, x2 = 0.25 | 41.2 mPa·s | 43.1 mPa·s
303.15 K, x2 = 0.333 | 75.03 mPa·s and 76.44 mPa·s | –
308.15 K, x2 = 0.333 | 57.85 mPa·s | –
313.15 K, x2 = 0.2 | 23.57 mPa·s | 24.63 mPa·s
313.15 K, x2 = 0.25 | 26.84 mPa·s | 27.84 mPa·s
313.15 K, x2 = 0.333 | 46.41 mPa·s and 45.29 mPa·s | –
318.15 K, x2 = 0.333 | 35.93 mPa·s | –
323.15 K, x2 = 0.2 | 16.21 mPa·s | 17.07 mPa·s
323.15 K, x2 = 0.25 | 18.62 mPa·s | 19.11 mPa·s
323.15 K, x2 = 0.333 | 30.68 mPa·s and 28.71 mPa·s | –

Oc1ccccc1 + Cc1cccc(O)c1
298.15 K, 101 kPa
Conditions | viscosity [mPa·s]
x1 = 0.1259 | 12.5
x1 = 0.2449 | 11.69
x1 = 0.3137 | 11.31
x1 = 0.3848 | 10.95
x1 = 0.4502 | 10.7
x1 = 0.5174 | 10.4
x1 = 0.6352 | 9.961
x1 = 0.7325 | 9.698
x1 = 0.819 | 9.398
x1 = 0.8921 | 9.206
x1 = 0.9301 | 9.105

CC=CC(=O)O + Cc1ccccc1
viscosity [mPa·s], 101 kPa
Conditions | 298.15 K | 303.15 K | 313.15 K | 323.15 K
x1 = 0.0503 | 0.5712 | 0.5371 | 0.4796 | 0.4317
x1 = 0.0975 | 0.5997 | 0.5609 | 0.4998 | 0.4502
x1 = 0.148 | 0.6218 | 0.5858 | 0.5213 | 0.4671

CCCCCCN + Cc1ccccc1
303.15 K, 101 kPa
Conditions | viscosity [mPa·s]
x2 = 0.1238 | 0.6558
x2 = 0.2561 | 0.6124
x2 = 0.3598 | 0.5834
x2 = 0.4481 | 0.5588
x2 = 0.5709 | 0.5327
x2 = 0.6774 | 0.5177
x2 = 0.7639 | 0.5072
x2 = 0.8616 | 0.5035
x2 = 0.9319 | 0.5102

COCCOCCOC + ClC(Cl)(Cl)Cl
298.15 K, 101.33 kPa
Conditions | viscosity [mPa·s]
x1 = 0.0934 | 0.965
x1 = 0.1967 | 0.995
x1 = 0.3018 | 1.023
x1 = 0.4053 | 1.044
x1 = 0.4892 | 1.059
x1 = 0.5352 | 1.06
x1 = 0.592 | 1.057
x1 = 0.6503 | 1.052
x1 = 0.6902 | 1.043
x1 = 0.7963 | 1.031
x1 = 0.8656 | 1.019
x1 = 0.9021 | 1.011
x1 = 0.9343 | 1.001

COCCOCCOC + ClC(Cl)Cl
298.15 K, 101.33 kPa
Conditions | viscosity [mPa·s]
x1 = 0.0986 | 0.727
x1 = 0.2039 | 0.946
x1 = 0.2993 | 1.028
x1 = 0.3966 | 1.082
x1 = 0.4825 | 1.094
x1 = 0.5247 | 1.093
x1 = 0.5864 | 1.08
x1 = 0.6365 | 1.072
x1 = 0.7006 | 1.054
x1 = 0.7976 | 1.033
x1 = 0.8985 | 1.011
x1 = 0.9325 | 1.008

Oc1ccccc1 + Clc1ccccc1
293.15 K, 101 kPa
Conditions | viscosity [mPa·s]
x1 = 0.0584 | 0.825
x1 = 0.115 | 0.888
x1 = 0.2493 | 1.122
x1 = 0.3435 | 1.274
x1 = 0.4323 | 1.673
x1 = 0.5436 | 2.218
x1 = 0.6243 | 2.748
x1 = 0.7492 | 4.07
x1 = 0.84 | 5.555

Oc1ccccc1 + Nc1ccccc1
101 kPa
Conditions | viscosity [mPa·s]
293.15 K, x1 = 0.0786 | 5.09
293.15 K, x1 = 0.1517 | 6.1
293.15 K, x1 = 0.2315 | 7.35
293.15 K, x1 = 0.3105 | 8.89
293.15 K, x1 = 0.3914 | 10.59
293.15 K, x1 = 0.473 | 12.15
293.15 K, x1 = 0.5355 | 13.2
293.15 K, x1 = 0.6225 | 14.18
293.15 K, x1 = 0.693 | 14.47
293.15 K, x1 = 0.7683 | 14.21
293.15 K, x1 = 0.8489 | 13.31
293.15 K, x1 = 0.922 | 12.21
303.15 K, x1 = 0.0741 | 3.66
303.15 K, x1 = 0.1582 | 4.34
303.15 K, x1 = 0.2314 | 5.07
303.15 K, x1 = 0.3142 | 5.95
303.15 K, x1 = 0.3889 | 6.85
303.15 K, x1 = 0.4691 | 7.7
303.15 K, x1 = 0.5374 | 8.36
303.15 K, x1 = 0.6159 | 8.89
303.15 K, x1 = 0.6906 | 9.07
303.15 K, x1 = 0.7667 | 8.89
303.15 K, x1 = 0.8466 | 8.34
303.15 K, x1 = 0.9243 | 7.68
308.1 K, x1 = 0.349 | 5.39
308.1 K, x1 = 0.511 | 6.54
308.1 K, x1 = 0.677 | 7.21
308.1 K, x1 = 0.795 | 6.92
313.15 K, x1 = 0.0741 | 2.74
313.15 K, x1 = 0.1582 | 3.15
313.15 K, x1 = 0.2314 | 3.61
313.15 K, x1 = 0.3142 | 4.1
313.15 K, x1 = 0.3889 | 4.61
313.15 K, x1 = 0.4691 | 5.1
313.15 K, x1 = 0.5374 | 5.45
313.15 K, x1 = 0.6159 | 5.73
313.15 K, x1 = 0.6906 | 5.83
313.15 K, x1 = 0.7667 | 5.73
313.15 K, x1 = 0.8466 | 5.46
313.15 K, x1 = 0.9243 | 5.11

Reference: the CheMixHub viscosity set
